Values quoted from earlier work, collected in US20110059171A1 (LABORATORIOS SENOSIAIN S.A. DE C.V., priority 2008, published 2011).

Assays:
[1] = in vivo
[2] = tested on: proteins

water solubility	excreted without any change in urine [1]	bound to proteins [2]	SMILES
highly water-soluble	–	–	O=C(c1ccccc1)c1ccc2n1CCC2C(=O)O (racemic) [Ketorolac tromethamine, (+−)-5(benzoyl)-2,3-dihydro-1H-pyrrolizine-1-carboxylic acid tris (hydroxymethyl)methylamine]
–	about 90%	More than 99%	O=C(c1ccccc1)c1ccc2n1CCC2C(=O)O (stereo not drawn) [Ketorolac]
